This note sets out measurements from patent US12172995B2, “Substituted indole and indazole compounds” (BRISTOL-MYERS SQUIBB COMPANY, priority 2018, dated 2024).

Holding throughout (format): cell-based
One experiment concerns the target T1, human TLR7 (Homo sapiens, UniProt Q9NYK1).
T1 construct: host or cells: HEK-Blue cells
T1 sequence (Q9NYK1 27-1049): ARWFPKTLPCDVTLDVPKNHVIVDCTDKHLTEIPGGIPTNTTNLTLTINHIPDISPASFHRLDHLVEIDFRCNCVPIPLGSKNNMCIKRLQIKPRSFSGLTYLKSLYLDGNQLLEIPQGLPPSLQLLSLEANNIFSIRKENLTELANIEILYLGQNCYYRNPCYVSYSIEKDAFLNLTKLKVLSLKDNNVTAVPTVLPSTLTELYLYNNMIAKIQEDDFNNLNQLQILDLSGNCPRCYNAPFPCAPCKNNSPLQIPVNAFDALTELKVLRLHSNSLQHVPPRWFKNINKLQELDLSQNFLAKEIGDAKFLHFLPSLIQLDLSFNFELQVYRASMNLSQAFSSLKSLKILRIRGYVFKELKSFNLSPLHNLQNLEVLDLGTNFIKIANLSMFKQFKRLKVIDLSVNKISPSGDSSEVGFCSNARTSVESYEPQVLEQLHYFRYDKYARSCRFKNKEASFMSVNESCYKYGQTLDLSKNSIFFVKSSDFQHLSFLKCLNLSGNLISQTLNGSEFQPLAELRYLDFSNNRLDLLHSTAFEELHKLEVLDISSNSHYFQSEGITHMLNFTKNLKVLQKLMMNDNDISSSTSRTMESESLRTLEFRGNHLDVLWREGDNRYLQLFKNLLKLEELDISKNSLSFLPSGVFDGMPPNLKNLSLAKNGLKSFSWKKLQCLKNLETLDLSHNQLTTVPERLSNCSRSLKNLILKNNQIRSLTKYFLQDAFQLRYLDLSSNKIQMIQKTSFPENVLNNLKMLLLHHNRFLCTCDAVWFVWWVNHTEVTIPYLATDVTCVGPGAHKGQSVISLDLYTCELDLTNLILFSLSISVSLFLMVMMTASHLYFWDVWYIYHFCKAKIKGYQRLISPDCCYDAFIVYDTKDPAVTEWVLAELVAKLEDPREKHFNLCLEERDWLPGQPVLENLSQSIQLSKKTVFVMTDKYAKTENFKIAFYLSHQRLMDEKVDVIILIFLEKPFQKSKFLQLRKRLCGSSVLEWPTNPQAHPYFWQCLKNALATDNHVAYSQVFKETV
In words: TLR7 inhibition reporter assay (HEK-Blue SEAP). The note with it: HEK-Blue cells overexpressing human TLR7, stimulated with gardiquimod 7.5 μM, 22 hour incubation. Summed up: (§1)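 Reporter HEK-Blue lines; cpd 0.05 nM–50 μM, 30 min preincubation RT; agonist: TLR7 gardiquimod 7.5 μM, TLR8 R848 15.9 μM, TLR9 ODN2006 5 nM; 22 h 37 °C; SEAP detected colorimetrically; % inhib vs known inhibitor.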
For orientation: In a reporter assay the amount or activity of a reporter protein is the signal.

For the next experiment, the target named is T2, human TLR9 (Homo sapiens, UniProt Q9NR96).
T2 construct: host or cells: HEK-Blue cells
T2 sequence (Q9NR96 26-1032): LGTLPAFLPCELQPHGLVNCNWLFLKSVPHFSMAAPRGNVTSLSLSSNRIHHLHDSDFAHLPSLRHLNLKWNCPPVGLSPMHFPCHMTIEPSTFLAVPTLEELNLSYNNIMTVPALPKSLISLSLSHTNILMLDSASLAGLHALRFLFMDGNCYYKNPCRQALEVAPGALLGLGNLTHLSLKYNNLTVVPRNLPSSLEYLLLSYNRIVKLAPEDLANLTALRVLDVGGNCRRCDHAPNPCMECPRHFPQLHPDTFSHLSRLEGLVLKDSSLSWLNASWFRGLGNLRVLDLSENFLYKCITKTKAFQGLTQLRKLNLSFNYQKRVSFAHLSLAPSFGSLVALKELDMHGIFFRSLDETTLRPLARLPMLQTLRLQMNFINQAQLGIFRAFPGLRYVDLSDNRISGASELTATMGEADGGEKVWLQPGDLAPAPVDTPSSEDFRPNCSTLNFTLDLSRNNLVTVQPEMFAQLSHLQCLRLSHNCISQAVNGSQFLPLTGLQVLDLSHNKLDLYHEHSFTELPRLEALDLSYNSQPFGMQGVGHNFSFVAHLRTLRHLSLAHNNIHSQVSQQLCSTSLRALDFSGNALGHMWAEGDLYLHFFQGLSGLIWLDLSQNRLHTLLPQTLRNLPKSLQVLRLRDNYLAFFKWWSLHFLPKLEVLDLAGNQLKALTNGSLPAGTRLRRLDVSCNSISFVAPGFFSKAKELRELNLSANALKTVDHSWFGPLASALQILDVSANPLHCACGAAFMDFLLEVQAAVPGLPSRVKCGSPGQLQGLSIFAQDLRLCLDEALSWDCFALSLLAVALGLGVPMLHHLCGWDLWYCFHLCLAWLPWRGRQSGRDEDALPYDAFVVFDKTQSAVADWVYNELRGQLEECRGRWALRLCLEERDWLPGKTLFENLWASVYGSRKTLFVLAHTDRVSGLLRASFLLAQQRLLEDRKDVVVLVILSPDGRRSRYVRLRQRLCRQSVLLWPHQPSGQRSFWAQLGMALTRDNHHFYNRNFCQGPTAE
In words: TLR9 inhibition reporter assay (HEK-Blue SEAP). Particulars: HEK-Blue cells overexpressing human TLR9, stimulated with ODN2006 5 nM, 22 hour incubation. Summed up:
as §1

For another experiment, the target named is T3, human TLR8 (Homo sapiens, UniProt Q9NR97).
T3 construct: host or cells: HEK-Blue cells
T3 sequence (Q9NR97 27-1041): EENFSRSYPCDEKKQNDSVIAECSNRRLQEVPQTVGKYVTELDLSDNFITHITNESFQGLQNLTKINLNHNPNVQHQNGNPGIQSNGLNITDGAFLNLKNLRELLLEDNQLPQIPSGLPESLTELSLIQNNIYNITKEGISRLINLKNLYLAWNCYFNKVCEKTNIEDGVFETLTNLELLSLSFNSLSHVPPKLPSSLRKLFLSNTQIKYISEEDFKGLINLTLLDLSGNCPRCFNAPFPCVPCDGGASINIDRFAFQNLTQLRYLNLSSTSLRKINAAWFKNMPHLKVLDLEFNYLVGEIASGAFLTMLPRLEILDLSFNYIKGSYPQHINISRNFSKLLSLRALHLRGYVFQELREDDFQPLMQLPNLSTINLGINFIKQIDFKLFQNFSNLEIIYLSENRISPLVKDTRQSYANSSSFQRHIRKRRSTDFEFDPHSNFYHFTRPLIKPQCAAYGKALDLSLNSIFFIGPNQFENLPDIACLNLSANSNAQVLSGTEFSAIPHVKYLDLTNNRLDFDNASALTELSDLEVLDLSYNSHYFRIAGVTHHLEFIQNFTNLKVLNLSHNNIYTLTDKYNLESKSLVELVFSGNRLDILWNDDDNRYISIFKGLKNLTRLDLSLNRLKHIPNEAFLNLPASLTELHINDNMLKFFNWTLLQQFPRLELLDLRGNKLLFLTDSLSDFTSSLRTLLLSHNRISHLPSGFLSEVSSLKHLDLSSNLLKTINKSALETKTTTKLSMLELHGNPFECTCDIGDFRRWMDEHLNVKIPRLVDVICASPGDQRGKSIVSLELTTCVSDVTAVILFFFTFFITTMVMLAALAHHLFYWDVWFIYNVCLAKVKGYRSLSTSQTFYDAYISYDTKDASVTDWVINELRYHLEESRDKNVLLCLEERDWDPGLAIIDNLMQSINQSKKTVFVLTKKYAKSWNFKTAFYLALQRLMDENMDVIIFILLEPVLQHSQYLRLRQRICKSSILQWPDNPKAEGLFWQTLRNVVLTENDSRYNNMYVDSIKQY
In words: TLR8 inhibition reporter assay (HEK-Blue SEAP). Particulars: HEK-Blue cells overexpressing human TLR8, stimulated with R848 15.9 μM, 22 hour incubation. Summed up:
as §1

What is called IC50 is the concentration needed to halve the response being measured. A higher IC50 goes with a need for much substance. With `Cc1cc2c(C3CC(N(C)C)C3)n[nH]c2cc1-c1cc(C)c2ncnn2c1` (single isomer, unassigned) [Example 7, N,N-dimethyl-3-(5-methyl-6-(8-methyl-[1,2,4]triazolo[1,5-a]pyridin-6-yl)-1H-indazol-3-yl)cyclobutan-1-amine], the IC50 is 21.6 nM against human TLR7, 4480 nM on human TLR9 and 1.3 nM at human TLR8.
For `COc1ccc(-c2cc3[nH]nc(C4CCCNC4)c3cc2C)cc1OC` (stereo not drawn) [Example 62, 6-(3,4-dimethoxyphenyl)-5-methyl-3-(piperidin-3-yl)-1H-indazole], the IC50 at human TLR7 stood at 824 nM; on human TLR9, 3200 nM; on human TLR8, 5.2 nM.
For `Cc1cc2c(C3CCN(C4CCOCC4)CC3)n[nH]c2cc1-c1cc(C)c2ncnn2c1` [Example 21, 8-methyl-6-(5-methyl-3-(1-(tetrahydro-2H-pyran-4-yl)piperidin-4-yl)-1H-indazol-6-yl)-[1,2,4]triazolo[1,5-a]pyridine], the IC50 on human TLR7 is 26.2 nM; on human TLR9, 4540 nM; at human TLR8, 0.7 nM.
For `Cc1cc(-c2cc3[nH]nc(C4CCC(N5CCC(S(C)(=O)=O)C5)CC4)c3cc2C(C)C)cn2ncnc12` (single isomer, unassigned) [Example 211, 6-(5-isopropyl-3-(4-(3-(methylsulfonyl)pyrrolidin-1-yl)cyclohexyl)-1H-indazol-6-yl)-8-methyl-[1,2,4]triazolo[1,5-a]pyridine], the IC50 is 2.5 nM against human TLR7, 32300 nM at human TLR9 and 0.15 nM on human TLR8.
The like results for `COc1cc(-c2cc3[nH]nc(C4CCC(N(C)C)CC4)c3cc2C(C)C)cn2ncnc12` (single isomer, unassigned) [Example 140, 4-(5-isopropyl-6-(8-methoxy-[1,2,4]triazolo[1,5-a]pyridin-6-yl)-1H-indazol-3-yl)-N,N-dimethylcyclohexan-1-amine] were, in that order, 0.2 nM, 3430 nM and 0.1 nM.
`Cc1cc(-c2ccc3c(NC4CCNCC4)n[nH]c3c2)cn2ncnc12` [Example 200, 6-(8-methyl-[1,2,4]triazolo[1,5-a]pyridin-6-yl)-N-(piperidin-4-yl)-1H-indazol-3-amine]: the results for the IC50 at human TLR7, against human TLR9 and on human TLR8 were 289 nM, 1890 nM and 149 nM, respectively.
Regarding `Cc1cc(-c2cc3[nH]nc(C4CCN(C(=O)CCN(C)C)CC4)c3cc2C(C)C)cn2ncnc12` [Example 122, 3-(dimethylamino)-1-(4-(5-isopropyl-6-(8-methyl-[1,2,4]triazolo[1,5-a]pyridin-6-yl)-1H-indazol-3-yl)piperidin-1-yl)propan-1-one], the IC50 against human TLR7 worked out at 3.2 nM; against human TLR9, 13700 nM; at human TLR8, 0.8 nM.
The like results for `Cc1cc(-c2cc3[nH]nc(C4CCC(N5CCOCC5)CC4)c3cc2C(C)C)cn2ncnc12` (stereo not drawn) [Example 133, 4-(4-(5-isopropyl-6-(8-methyl-[1,2,4]triazolo[1,5-a]pyridin-6-yl)-1H-indazol-3-yl)cyclohexyl)morpholine] were, in that order, 1.4 nM, 9190 nM and 0.2 nM.
The like results for `Cc1cc2c(C3CCC(NC4COC4)CC3)n[nH]c2cc1-c1cc(C)c2ncnn2c1` (single isomer, unassigned) [Example 35, N-(4-(5-methyl-6-(8-methyl-[1,2,4]triazolo[1,5-a]pyridin-6-yl)-1H-indazol-3-yl)cyclohexyl)oxetan-3-amine] were, in that order, 29.7 nM, 3100 nM and 0.8 nM.
On to `COc1cc(-c2cc3[nH]ncc3cc2C)cn2ncnc12` [Example 64, 8-methoxy-6-(5-methyl-1H-indazol-6-yl)-[1,2,4]triazolo[1,5-a]pyridine], for which the IC50 on human TLR7 is 905 nM; against human TLR9, 9040 nM; on human TLR8, 41.8 nM.
Turning to `COc1cc(-c2cc3[nH]nc(C4CCC(N5CC(OC)C5)CC4)c3cc2C(C)C)cn2ncnc12` (single isomer, unassigned) [Example 148, 6-(5-isopropyl-3-(4-(3-methoxyazetidin-1-yl)cyclohexyl)-1H-indazol-6-yl)-8-methoxy-[1,2,4]triazolo[1,5-a]pyridine], the IC50 is 1.3 nM at human TLR7, 6450 nM on human TLR9 and 31.3 nM at human TLR8.
The corresponding values for `Cc1cc(-c2cc3[nH]nc(C4CCC(N5CC(OC(C)C)C5)CC4)c3cc2C(C)C)cn2ncnc12` (single isomer, unassigned) [Example 161, 6-(3-(4-(3-isopropoxyazetidin-1-yl)cyclohexyl)-5-isopropyl-1H-indazol-6-yl)-8-methyl-[1,2,4]triazolo[1,5-a]pyridine] are 6.4 nM, 8400 nM and 0.5 nM.
